Usually melting point stands for the temperature of the solid-liquid transition. As usually defined, the GI50 is the concentration giving 50% growth inhibition.

One data set deals with MCF-7 (breast cancer). Put plainly: MTT cell viability assay. Type of data set: cell-based. As to conditions: Homo sapiens, MCF7; MCF-7, MTT, 24 h. The method, then:
(§1) In the second stage of the research, Ciminalum-thiazolidinone hybrids were investigated for antitumor activity on the lines of gastric cancer (AGS), human colon cancer (DLD-1), and breast cancers (MCF-7 and MDA-MB-231). The study was performed in the MTT assay according to the method described previously. The studied cancer line was sensitive to the action of the studied compounds that inhibited its growth in micromolar ranges of GI50. The hit compounds that inhibited the growth of all four cancer lines with the lowest GI50 values were [5-[2-chloro-3-(4-nitrophenyl)prop-2-enylidene]-rhodanines 2c, 2d, 2h, and 2i (Table 4).

Data set [1] deals with DLD-1 (human colon cancer). The experiment in a line: MTT cell viability assay. The data set is classed as cell-based. As to conditions: DLD-1, MTT, 24 h. The method, then:
as §1
(In general: Tetrazolium assays rely on reduction of a dye to a coloured formazan, in cell work by metabolically active cells.)

For another data set, the system named is AGS (gastric cancer). The experiment in a line: MTT cell viability assay. The data set is classed as cell-based. As to conditions: Homo sapiens, 24 h. The method, then: as §1
The test system of data set [2] is MDA-MB-231 (breast cancer). The experiment in a line: MTT cell viability assay. The data set is classed as cell-based. To be noted: Homo sapiens; MDA-MB-231, MTT, 24 h. The method, then: as §1
A short description of another data set: in vitro. To be noted: human. The method, then: (§2) Another part of our study was to determine the influence of compounds 2f, 2i, 2j, and 2h on normal human blood lymphocytes (Figure 5). […] Thus, normal blood lymphocytes are blood cells, as well as cells of leukemia cell lines, therapeutic index (TI) of compounds 2f, 2h, and 2j was calculated as GI50 (normal blood lymphocyte)/GI50 (leukemia cell line) (Table 5).
(§3) Figure 5 Human lymphocyte viability after 48 h of 2f, 2i, 2j, 2h, and Ciminalum drug exposure was estimated by MTT assay.
(§4) The assay was performed by using 3-(4,5-dimethylthiazole-2-yl)- 2,5-diphenyltetrazolium bromide (MTT). Confluent cells, cultured for 24 h with 0.1, 1, 5, 10, 20, 30, and 100 µM concentrations of studied compounds in 24-well plates were washed with PBS. MTT was dissolved in PBS, and 25 µL were added to each well. Plates were incubated for 4 h at 37 °C in 5% CO2 in an incubator. The medium with MTT was removed, and 1 mL of DMSO was added to the attached cells. Furthermore, cells were incubated for 5–10 min in RT and then 10 µl of Sorensen buffer was added to each well. The absorbance of converted dye in living cells was measured at a wavelength of 570 nm. The cell viability of breast cancer cells, gastric cancer cells, and human colon cancer cells cultured in the presence of ligands was calculated as percent of control cells.
(§5) First, 20 mL of venous blood was taken from volunteers (Ethical protocol number 2, 27 January 2019) and collected in the presence of 200 μL of undiluted fresh heparin (1/100). Sterile blood was diluted 2 times with 0.9% NaCl under the sterile conditions. Isolation of lymphocytes was performed in a density gradient of ficol-verografin using the protocol of the manufacturer (Lympoprep, NYCOMED PHARMA AS, Oslo Norway). The resulting lymphocytes were resuspended in the RPMI-1640 medium and cultured for several days (up to 10 days). To separate the lymphocytes from the monocytes, cell suspension was left for 24 h. After 24 h of culture, monocytes were attached, while lymphocytes were transferred to a fresh Falcon tube (15 mL). To stimulate the proliferation of lymphocytes, they were cultured on CD3+ antibody-coated plastic plate in the RPMI-1640 medium supplemented with 20% FBS.

Data set [3] relates to normal human blood lymphocytes. The experiment in a line: in vitro. The method, then:
as §2, §3, §4, §5

Data set [4] relates to breast cancer lines MCF-7 and MDA-MB-231. Put plainly: MTT cell viability assay, both breast cancer lines. The data set is classed as cell-based. To be noted: Homo sapiens; MCF-7 and MDA-MB-231, MTT; read-out: GI50 level. The method, then: as §1
The subject of another data set is Jurkat T-cells. Set-up: method as in doi:10.7124/bc.00003D. As to conditions: cited from earlier work.

Turning to `O=C(O)CCCCCN1C(=O)/C(=C/C(Cl)=C/c2ccc([N+](=O)[O-])cc2)SC1=S` [Compound 2i, 6-{5-[(Z,2Z)-2-Chloro-3-(4-nitrophenyl)-2-propenylidene]-4-oxo-2-thioxothiazolidin-3-yl}hexanoic acid], the melting point was above 220 °C. The molecule also gave a GI50 in the data set with MCF-7 (breast cancer) of 1.73 µM. In addition, the GI50 in [1] was determined as 9.22 µM. This molecule registered a concentration for 50% growth inhibition (GI50) in the data set on AGS (gastric cancer) of 3.2 µM. Besides, the GI50 in data set [2] was determined as 0.95 µM. Moreover, in “in vitro”, the GI50 at 48 h is above 100 µM. The “toxicity toward normal human blood lymphocytes” value in [3] is “low toxicity”. In data set [4], the GI50 lay within 0.95 to 1.74 µM.

Molecule `O=C(O)CC(C(=O)O)N1C(=O)/C(=C/C(Cl)=C/c2ccc([N+](=O)[O-])cc2)SC1=S` (stereo not drawn) [Compound 2k, 2-{5-[(Z,2Z)-2-Chloro-3-(4-nitrophenyl)-2-propenylidene]-4-oxo-2-thioxothiazolidin-3-yl}succinic acid] gave a melting point of 220 to 222 °C. The molecule further came in with a GI50 with MCF-7 (breast cancer) of 18.1 µM. This molecule returned a GI50 in data set [1] of 10 µM. In the data set with AGS (gastric cancer), this molecule displayed a GI50 of 13.1 µM. The molecule further registered a concentration for 50% growth inhibition (GI50) in data set [2] of 15.3 µM.

`O=C1/C(=C/C(Cl)=C/c2ccc([N+](=O)[O-])cc2)SC(=S)N1CCS(=O)(=O)O` [Compound 2g, 2-{5-[(Z,2Z)-2-Chloro-3-(4-nitrophenyl)-2-propenylidene]-4-oxo-2-thioxothiazolidin-3-yl}-1-ethanesulfonic acid] gave a melting point above 260 °C. The molecule also had a GI50 in the data set on MCF-7 (breast cancer) of 26.4 µM. In addition, it took 27.5 µM to inhibit growth in [1] by half (GI50). Further, in the data set with AGS (gastric cancer), the GI50 came to 18 µM. Halving of growth in data set [2] (GI50) required 16.8 µM. In addition, the “toxicity toward normal human blood lymphocytes” value in data set [3] is reported as “low toxicity”.

On to `O=C/C(Cl)=C/c1ccc([N+](=O)[O-])cc1` [Ciminalum, (2Z)-2-chloro-3-(4-nitrophenyl)prop-2-enal, reference compound], for which the GI50 at 48 h in “in vitro” came out at 10.4 µM.

The molecule `O=C1NC(=O)/C(=C/C(Cl)=C/c2ccc([N+](=O)[O-])cc2)S1` [Compound 2a, 5-[(Z,2Z)-2-Chloro-3-(4-nitrophenyl)-2-propenylidene]-2,4-thiazolidinedione] displayed a melting point above 270 °C. The molecule also came in with a GI50 with MCF-7 (breast cancer) of 18 µM. Besides, in data set [1], it took 14 µM to inhibit growth by half (GI50). In the data set on AGS (gastric cancer), this molecule came in with a GI50 of 18.7 µM. It took 13.9 µM to inhibit growth in data set [2] by half (GI50).

For `O=C(O)CCC(C(=O)O)N1C(=O)/C(=C/C(Cl)=C/c2ccc([N+](=O)[O-])cc2)SC1=S` (stereo not drawn) [Compound 2l, 2-{5-[(Z,2Z)-2-Chloro-3-(4-nitrophenyl)-2-propenylidene]-4-oxo-2-thioxothiazolidin-3-yl}pentanedioic acid], the melting point is 205 to 207 °C. Halving of growth with MCF-7 (breast cancer) (GI50) required 21.2 µM. In data set [1], this molecule showed a GI50 of 9.19 µM. In the data set on AGS (gastric cancer), the GI50 worked out at 12.6 µM. The molecule also registered a GI50 in data set [2] of 17.5 µM.

On to `O=C(Cc1ccccc1Nc1c(Cl)cccc1Cl)NN1C(=O)/C(=C/C(Cl)=C/c2ccc([N+](=O)[O-])cc2)SC1=S` [Compound 2e, N^1-{5-[(Z,2Z)-2-Chloro-3-(4-nitrophenyl)-2-propenylidene]-4-oxo-2-thioxothiazolidin-3-yl}-2-[2-(2,6-dichloroanilino)phenyl]acetamide], for which the melting point lay in the range of 257 to 258 °C. In addition, the GI50 in the data set with MCF-7 (breast cancer) came to 17.9 µM. The molecule also came in with a GI50 in data set [1] of 16 µM. In the data set on AGS (gastric cancer), this molecule gave a GI50 of 17.1 µM. The molecule also displayed a GI50 in [2] of 15.8 µM.

On to `O=C1NC(=N/c2ccc(F)cc2)/C(=C/C(Cl)=C/c2ccc([N+](=O)[O-])cc2)S1` [III], for which, in the data set on Jurkat T-cells, the caspase-7 activation entry is reported as “weak”; the “cleavage of PARP-1 and DFF45” value is “weak”.

The molecule `O=C(NN1C(=O)/C(=C/C(Cl)=C/c2ccc([N+](=O)[O-])cc2)SC1=S)c1csc2c1CCCC2` [Compound 2d, 5-[(Z,2Z)-2-Chloro-3-(4-nitrophenyl)-2-propenylidene]-4-oxo-3-(4,5,6,7-tetrahydrobenzo[b]thiophen-3-ylcarboxamido)-2-thioxo-4-thiazolidinone] gave a melting point above 230 °C. The same molecule showed a GI50 in the data set with MCF-7 (breast cancer) of 4.45 µM. In addition, halving of growth in data set [1] (GI50) required 5.47 µM. Besides, in the data set on AGS (gastric cancer), the GI50 amounted to 4.08 µM. The molecule further had a GI50 in data set [2] of 3.11 µM.
